Experimental data from ChEMBL document CHEMBL1150977, “A quantitative analysis of kinase inhibitor selectivity” (Nat Biotechnol, 2008).
pKd: −log10 of the molar value.

Columns and labels:
[1] = target: Ribosomal protein S6 kinase alpha-6 (Homo sapiens, UniProt Q9UK32)
[2] = target: Dual specificity protein kinase CLK1 (Homo sapiens, UniProt P49759)
[3] = target: RAC-gamma serine/threonine-protein kinase (Homo sapiens, UniProt Q9Y243)
[4] = target: T1, Serine/threonine-protein kinase Chk1 (Homo sapiens, UniProt O14757)
T1 sequence (O14757 whole entry): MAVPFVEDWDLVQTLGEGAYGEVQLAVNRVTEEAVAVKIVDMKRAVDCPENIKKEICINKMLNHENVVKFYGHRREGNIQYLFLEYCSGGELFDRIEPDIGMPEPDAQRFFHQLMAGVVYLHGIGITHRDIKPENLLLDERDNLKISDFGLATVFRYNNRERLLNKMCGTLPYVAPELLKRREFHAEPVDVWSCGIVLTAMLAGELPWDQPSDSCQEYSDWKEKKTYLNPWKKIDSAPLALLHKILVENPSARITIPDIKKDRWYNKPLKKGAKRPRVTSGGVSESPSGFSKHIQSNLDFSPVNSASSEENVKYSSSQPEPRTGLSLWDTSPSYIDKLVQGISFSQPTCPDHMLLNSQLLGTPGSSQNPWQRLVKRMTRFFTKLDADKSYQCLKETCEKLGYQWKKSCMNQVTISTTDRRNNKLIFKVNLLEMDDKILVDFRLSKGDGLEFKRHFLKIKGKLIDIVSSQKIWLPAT

[5] = target: T2, Serine/threonine-protein kinase LATS2 (Homo sapiens, UniProt Q9NRM7)
T2 sequence (Q9NRM7 whole entry): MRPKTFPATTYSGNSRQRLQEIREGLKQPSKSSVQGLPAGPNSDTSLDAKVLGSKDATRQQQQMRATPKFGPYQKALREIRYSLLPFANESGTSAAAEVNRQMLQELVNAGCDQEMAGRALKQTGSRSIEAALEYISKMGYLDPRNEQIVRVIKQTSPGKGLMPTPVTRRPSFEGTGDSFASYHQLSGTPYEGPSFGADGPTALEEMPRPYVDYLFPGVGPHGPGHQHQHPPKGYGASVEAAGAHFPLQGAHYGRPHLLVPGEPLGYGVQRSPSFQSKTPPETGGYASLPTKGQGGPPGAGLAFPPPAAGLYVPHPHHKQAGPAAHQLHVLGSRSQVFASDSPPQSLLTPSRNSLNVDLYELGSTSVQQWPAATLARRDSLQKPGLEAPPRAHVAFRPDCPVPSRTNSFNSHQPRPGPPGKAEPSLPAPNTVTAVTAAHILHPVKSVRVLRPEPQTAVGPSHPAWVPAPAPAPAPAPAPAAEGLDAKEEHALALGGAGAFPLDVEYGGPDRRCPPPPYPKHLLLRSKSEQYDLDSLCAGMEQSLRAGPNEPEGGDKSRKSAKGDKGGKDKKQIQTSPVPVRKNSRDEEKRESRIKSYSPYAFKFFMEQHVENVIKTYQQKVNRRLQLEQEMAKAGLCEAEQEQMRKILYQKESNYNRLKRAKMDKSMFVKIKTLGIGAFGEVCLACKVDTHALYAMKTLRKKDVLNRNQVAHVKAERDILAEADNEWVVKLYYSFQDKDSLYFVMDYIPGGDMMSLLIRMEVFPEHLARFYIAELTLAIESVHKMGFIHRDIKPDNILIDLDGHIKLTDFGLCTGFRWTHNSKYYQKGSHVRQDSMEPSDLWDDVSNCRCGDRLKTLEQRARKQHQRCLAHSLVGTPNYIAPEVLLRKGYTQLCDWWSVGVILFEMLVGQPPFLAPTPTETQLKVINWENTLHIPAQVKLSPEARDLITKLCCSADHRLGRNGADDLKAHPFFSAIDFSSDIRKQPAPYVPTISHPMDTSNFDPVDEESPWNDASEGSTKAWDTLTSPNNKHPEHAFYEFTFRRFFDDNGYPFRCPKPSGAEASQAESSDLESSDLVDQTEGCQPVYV

SRSF protein kinase 2 = SRSF protein kinase 2 (Homo sapiens, UniProt P78362)
[6] = target: T3, Non-receptor tyrosine-protein kinase TNK1 (Homo sapiens, UniProt Q13470)
T3 sequence (Q13470 whole entry): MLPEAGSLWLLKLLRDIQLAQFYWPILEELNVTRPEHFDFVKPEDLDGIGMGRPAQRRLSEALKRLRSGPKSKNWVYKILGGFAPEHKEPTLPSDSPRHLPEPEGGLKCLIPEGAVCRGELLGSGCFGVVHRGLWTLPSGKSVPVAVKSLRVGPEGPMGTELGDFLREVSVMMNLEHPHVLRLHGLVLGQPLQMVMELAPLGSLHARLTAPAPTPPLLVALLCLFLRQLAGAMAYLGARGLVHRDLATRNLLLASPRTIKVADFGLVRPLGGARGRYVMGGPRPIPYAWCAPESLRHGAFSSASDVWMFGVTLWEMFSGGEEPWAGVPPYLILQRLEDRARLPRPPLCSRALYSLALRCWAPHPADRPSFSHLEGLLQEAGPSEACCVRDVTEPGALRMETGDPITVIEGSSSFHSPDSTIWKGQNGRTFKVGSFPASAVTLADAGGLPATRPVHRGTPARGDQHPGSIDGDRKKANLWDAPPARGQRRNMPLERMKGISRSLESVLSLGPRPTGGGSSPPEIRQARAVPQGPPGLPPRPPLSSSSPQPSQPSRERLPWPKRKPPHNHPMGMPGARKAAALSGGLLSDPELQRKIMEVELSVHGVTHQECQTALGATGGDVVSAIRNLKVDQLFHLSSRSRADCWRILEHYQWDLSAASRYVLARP

[7] = target: Protein kinase C delta type (Homo sapiens, UniProt Q05655)
[8] = target: Fibroblast growth factor receptor 3 (Homo sapiens, UniProt P22607)
[9] = target: Mitogen-activated protein kinase 1 (Homo sapiens, UniProt P28482)
[10] = target: MAP/microtubule affinity-regulating kinase 3 (Homo sapiens, UniProt P27448)
Sequence of MAP/microtubule affinity-regulating kinase 3 (P27448 whole entry): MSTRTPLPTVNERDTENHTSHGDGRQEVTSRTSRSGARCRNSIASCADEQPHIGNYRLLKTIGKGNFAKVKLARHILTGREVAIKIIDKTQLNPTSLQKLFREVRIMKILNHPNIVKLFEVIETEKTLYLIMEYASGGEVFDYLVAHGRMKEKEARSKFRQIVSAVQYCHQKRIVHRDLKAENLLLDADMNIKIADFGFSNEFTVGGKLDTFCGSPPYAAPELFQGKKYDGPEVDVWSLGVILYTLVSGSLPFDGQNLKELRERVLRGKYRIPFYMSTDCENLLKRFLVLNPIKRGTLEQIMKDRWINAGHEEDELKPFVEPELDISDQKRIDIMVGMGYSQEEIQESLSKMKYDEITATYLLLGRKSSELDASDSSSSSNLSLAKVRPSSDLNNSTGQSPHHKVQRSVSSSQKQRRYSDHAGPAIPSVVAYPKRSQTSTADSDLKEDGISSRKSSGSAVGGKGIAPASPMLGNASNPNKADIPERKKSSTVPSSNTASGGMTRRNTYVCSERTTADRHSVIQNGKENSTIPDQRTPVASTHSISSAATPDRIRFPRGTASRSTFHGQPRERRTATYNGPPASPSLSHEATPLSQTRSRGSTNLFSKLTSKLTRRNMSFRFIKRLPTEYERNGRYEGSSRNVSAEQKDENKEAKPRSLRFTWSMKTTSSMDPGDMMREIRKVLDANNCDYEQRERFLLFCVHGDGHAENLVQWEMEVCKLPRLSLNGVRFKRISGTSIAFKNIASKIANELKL

Sequence of Mitogen-activated protein kinase 1 (P28482 whole entry): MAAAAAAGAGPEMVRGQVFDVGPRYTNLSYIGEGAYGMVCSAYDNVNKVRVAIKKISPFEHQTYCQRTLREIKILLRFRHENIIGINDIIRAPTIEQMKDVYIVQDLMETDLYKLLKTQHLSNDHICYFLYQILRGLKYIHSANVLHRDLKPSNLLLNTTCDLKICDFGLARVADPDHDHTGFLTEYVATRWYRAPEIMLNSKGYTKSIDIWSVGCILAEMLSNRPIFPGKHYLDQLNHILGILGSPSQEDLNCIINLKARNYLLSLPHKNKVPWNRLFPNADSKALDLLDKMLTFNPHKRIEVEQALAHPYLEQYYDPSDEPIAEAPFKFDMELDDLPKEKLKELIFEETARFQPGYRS
Sequence of Dual specificity protein kinase CLK1 (P49759 whole entry): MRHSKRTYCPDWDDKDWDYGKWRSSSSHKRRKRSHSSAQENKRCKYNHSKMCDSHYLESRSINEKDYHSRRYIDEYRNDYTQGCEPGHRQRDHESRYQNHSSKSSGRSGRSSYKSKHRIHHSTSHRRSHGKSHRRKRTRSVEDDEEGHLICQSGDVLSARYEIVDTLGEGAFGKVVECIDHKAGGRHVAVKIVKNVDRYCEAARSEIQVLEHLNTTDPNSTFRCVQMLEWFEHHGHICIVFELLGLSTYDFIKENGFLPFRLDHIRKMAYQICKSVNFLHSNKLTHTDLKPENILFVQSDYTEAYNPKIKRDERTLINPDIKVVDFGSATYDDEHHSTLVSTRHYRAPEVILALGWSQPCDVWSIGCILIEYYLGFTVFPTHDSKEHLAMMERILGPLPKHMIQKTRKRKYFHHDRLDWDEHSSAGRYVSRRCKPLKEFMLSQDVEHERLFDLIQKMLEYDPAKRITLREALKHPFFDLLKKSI
Sequence of Fibroblast growth factor receptor 3 (P22607 whole entry): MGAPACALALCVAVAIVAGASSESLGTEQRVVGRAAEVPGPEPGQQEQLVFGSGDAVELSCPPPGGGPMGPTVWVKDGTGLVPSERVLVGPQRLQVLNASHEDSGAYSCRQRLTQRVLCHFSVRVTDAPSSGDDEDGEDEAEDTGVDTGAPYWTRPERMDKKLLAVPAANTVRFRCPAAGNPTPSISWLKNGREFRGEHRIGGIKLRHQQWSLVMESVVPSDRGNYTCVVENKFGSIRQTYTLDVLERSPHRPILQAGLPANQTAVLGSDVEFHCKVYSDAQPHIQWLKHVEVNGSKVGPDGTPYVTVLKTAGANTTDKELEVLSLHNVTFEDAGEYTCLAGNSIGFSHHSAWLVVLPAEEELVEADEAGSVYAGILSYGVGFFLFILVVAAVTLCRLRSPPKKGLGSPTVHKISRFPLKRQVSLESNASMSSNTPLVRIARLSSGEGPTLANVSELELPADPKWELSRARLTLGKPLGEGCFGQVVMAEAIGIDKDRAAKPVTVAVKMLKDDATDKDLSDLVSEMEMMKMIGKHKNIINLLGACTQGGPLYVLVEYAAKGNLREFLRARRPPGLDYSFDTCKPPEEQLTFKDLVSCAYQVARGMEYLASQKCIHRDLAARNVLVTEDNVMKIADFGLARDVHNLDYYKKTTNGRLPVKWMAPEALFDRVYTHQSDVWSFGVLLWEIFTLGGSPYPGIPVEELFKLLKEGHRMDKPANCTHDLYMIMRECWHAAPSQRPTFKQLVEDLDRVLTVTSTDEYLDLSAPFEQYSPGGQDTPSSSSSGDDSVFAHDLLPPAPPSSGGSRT
Sequence of RAC-gamma serine/threonine-protein kinase (Q9Y243 whole entry): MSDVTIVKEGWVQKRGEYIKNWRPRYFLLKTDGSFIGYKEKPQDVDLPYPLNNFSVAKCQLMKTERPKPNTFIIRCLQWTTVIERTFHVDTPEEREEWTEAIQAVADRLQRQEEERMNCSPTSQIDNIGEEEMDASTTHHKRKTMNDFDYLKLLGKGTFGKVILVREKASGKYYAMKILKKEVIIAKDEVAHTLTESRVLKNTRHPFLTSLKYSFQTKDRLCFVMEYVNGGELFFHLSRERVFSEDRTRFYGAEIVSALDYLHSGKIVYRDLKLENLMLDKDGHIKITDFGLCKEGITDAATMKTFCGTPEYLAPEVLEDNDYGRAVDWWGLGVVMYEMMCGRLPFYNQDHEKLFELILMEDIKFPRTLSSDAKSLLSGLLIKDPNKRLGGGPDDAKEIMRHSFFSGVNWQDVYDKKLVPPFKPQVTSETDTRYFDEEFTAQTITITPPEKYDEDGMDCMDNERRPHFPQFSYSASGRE
Sequence of Protein kinase C delta type (Q05655 whole entry): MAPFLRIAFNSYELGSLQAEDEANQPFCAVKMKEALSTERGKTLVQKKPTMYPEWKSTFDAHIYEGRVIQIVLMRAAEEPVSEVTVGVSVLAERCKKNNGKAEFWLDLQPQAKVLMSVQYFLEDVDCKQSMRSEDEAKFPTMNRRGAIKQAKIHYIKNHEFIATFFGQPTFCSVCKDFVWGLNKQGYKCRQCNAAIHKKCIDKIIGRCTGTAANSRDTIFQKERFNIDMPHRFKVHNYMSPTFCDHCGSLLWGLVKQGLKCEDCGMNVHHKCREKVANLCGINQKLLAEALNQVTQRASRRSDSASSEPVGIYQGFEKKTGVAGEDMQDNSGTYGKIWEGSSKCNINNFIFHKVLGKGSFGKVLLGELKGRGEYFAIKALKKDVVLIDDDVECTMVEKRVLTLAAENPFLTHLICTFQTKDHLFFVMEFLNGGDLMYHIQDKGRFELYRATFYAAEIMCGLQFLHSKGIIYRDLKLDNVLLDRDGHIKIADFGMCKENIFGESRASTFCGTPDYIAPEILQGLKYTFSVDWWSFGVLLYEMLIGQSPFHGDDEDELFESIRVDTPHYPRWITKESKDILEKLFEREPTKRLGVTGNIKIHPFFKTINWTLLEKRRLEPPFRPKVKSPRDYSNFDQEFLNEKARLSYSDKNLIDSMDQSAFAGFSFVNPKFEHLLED
Sequence of SRSF protein kinase 2 (P78362 whole entry): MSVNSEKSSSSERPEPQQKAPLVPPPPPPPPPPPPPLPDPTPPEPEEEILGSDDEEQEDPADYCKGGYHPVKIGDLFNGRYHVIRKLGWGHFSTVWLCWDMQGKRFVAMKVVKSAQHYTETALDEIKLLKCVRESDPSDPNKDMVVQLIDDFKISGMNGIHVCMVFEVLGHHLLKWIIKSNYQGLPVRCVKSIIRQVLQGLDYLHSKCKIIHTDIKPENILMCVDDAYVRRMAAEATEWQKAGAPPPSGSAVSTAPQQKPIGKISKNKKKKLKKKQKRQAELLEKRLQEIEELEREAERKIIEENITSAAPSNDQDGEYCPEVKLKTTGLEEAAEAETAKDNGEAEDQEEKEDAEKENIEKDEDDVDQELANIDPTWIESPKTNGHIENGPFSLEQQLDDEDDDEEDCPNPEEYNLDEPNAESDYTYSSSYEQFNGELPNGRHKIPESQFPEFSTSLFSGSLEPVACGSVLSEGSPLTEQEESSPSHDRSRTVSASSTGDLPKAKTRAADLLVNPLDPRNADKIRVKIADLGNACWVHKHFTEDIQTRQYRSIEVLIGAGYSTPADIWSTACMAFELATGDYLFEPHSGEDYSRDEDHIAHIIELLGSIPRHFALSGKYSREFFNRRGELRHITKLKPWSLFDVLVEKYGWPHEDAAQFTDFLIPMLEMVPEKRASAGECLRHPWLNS
Sequence of Ribosomal protein S6 kinase alpha-6 (Q9UK32 whole entry): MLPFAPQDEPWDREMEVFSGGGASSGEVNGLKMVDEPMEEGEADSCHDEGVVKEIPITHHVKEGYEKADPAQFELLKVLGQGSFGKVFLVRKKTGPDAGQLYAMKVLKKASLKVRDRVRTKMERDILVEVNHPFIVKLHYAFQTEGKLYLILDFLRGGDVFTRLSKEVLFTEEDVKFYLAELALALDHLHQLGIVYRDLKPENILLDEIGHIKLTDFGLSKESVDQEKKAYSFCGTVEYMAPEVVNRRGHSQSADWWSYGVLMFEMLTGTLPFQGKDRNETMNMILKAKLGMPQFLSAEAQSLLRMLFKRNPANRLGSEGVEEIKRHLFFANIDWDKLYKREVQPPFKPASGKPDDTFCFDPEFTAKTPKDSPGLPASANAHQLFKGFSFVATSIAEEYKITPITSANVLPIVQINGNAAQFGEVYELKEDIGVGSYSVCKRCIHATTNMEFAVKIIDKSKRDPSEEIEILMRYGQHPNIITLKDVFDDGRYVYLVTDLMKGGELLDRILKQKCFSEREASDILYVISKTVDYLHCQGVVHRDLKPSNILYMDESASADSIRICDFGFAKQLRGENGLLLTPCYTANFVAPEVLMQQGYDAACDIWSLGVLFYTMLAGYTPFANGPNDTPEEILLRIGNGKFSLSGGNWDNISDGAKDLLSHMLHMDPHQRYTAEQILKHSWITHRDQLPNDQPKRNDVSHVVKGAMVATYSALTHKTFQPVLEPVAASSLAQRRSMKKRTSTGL

Row | SMILES | pKd [1] | pKd [2] | pKd [3] | pKd [4] | pKd [5] | pKd (SRSF protein kinase 2) | pKd [6] | pKd [7] | pKd [8] | pKd [9] | pKd [10]
1 | COCC(=O)NC/C=C/c1ccc2ncnc(Nc3ccc(Oc4ccc(C)nc4)c(C)c3)c2c1 [CP-724714] | < 5.00 | < 5.00 | < 5.00 | < 5.00 | < 5.00 | < 5.00 | < 5.00 | < 5.00 | < 5.00 | < 5.00 | < 5.00
2 | CCOc1cc2ncc(C#N)c(Nc3ccc(F)c(Cl)c3)c2cc1NC(=O)/C=C/CN(C)C [PELITINIB] | < 5.00 | – | < 5.00 | 5.72 | < 5.00 | < 5.00 | < 5.00 | – | < 5.00 | < 5.00 | < 5.00
3 | NC(=O)c1ccc(-c2nc(-c3ccc4c(c3)OCO4)c(-c3ccccn3)[nH]2)cc1 [SB-431542] | – | < 5.00 | < 5.00 | < 5.00 | < 5.00 | < 5.00 | < 5.00 | < 5.00 | < 5.00 | < 5.00 | < 5.00
4 | CCN1CCN(Cc2ccc(NC(=O)Nc3ccc(Oc4cc(NC)ncn4)cc3)cc2C(F)(F)F)CC1 [AST-487] | – | – | – | – | – | – | – | – | < 5.00 | – | –
5 | Nc1nc(Nc2ccc(S(N)(=O)=O)cc2)nn1C(=O)c1c(F)cccc1F [JNJ-7706621] | – | – | < 5.00 | – | – | < 5.00 | – | 5.35 | – | – | –
6 | Oc1ccc(-c2nc(-c3ccncc3)c(-c3ccc(F)cc3)[nH]2)cc1 [SB-202190] | < 5.00 | < 5.00 | < 5.00 | < 5.00 | – | < 5.00 | < 5.00 | < 5.00 | < 5.00 | < 5.00 | < 5.00
